# Laboratory results published in BindingDB's records for doi:10.1016/j.bmcl.2012.08.020 (Amgen, 2012).
# Test: Inhibition of ACK1 in mouse C8 cells assessed as decrease in cell viability after 20 to 24 hrs
row,SMILES,IC50
1,Cc1ccccc1-c1c(-c2ccc(OCCN3CCCC3)cc2)[nH]c2ncnc(NC[C@@H]3CCCO3)c12,160 nM
2,Fc1ccccc1-c1c(-c2ccc(OCCN3CCCC3)cc2)[nH]c2ncnc(NC[C@@H]3CCCO3)c12,40 nM
3,CN(C)CCOc1ccc(-c2[nH]c3ncnc(NCC4SCCS4)c3c2-c2ccccc2)cc1,5 nM
4,CN(C)CCOc1ccc(-c2oc3ncnc(NCC4SCCS4)c3c2-c2ccccc2)cc1,10 nM
5,c1ccc(-c2c(-c3ccc(OCCN4CCCC4)cc3)[nH]c3ncnc(NCC4SCCS4)c23)cc1,10 nM
6,CN(C)CCOc1ccc(-c2oc3ncnc(NCC4CCCS4)c3c2-c2ccccc2)cc1 (stereo not given),3000 nM
7,CN(C)CCOc1ccc(-c2oc3ncnc(NCC4OCCO4)c3c2-c2ccccc2)cc1,2000 nM
8,CN(C)CCOc1ccc(-c2oc3ncnc(NC[C@@H]4CCCCS4)c3c2-c2ccccc2)cc1,7160 nM
9,CN(C)CCOc1ccc(-c2oc3ncnc(NCC4SCCCS4)c3c2-c2ccccc2)cc1,550 nM
10,CN(C)CCOc1ccc(-c2[nH]c3ncnc(NC[C@@H]4CC[C@H]4O)c3c2-c2ccccc2)cc1,410 nM
11,CN(C)CCOc1ccc(-c2[nH]c3ncnc(NC[C@H]4CCC[C@H]4O)c3c2-c2ccccc2)cc1,460 nM
12,CO[C@@H]1CCC[C@@H]1CNc1ncnc2[nH]c(-c3ccc(OCCN(C)C)cc3)c(-c3ccccc3)c12,780 nM
13,CO[C@@H]1CCC[C@H]1CNc1ncnc2[nH]c(-c3ccc(OCCN(C)C)cc3)c(-c3ccccc3)c12,1300 nM
14,c1cncc(-c2c(-c3ccc(OCCN4CCCC4)cc3)[nH]c3ncnc(NC[C@@H]4CCCO4)c23)c1,390 nM
15,COc1cccc(-c2c(-c3ccc(OCCN4CCCC4)cc3)[nH]c3ncnc(NC[C@@H]4CCCO4)c23)c1,160 nM
16,c1ccc(-c2[nH]c3ncnc(NC[C@@H]4CCCO4)c3c2-c2ccccc2)cc1,620 nM
17,COc1ccc(-c2oc3ncnc(NC[C@@H]4CCCO4)c3c2-c2ccccc2)cc1,550 nM
18,COc1ccc(-c2[nH]c3ncnc(NC[C@@H]4CCCO4)c3c2-c2ccccc2)cc1,350 nM
19,CS(=O)(=O)c1ccc(-c2oc3ncnc(NC[C@@H]4CCCO4)c3c2-c2ccccc2)cc1,250 nM
20,CS(=O)(=O)c1ccc(-c2[nH]c3ncnc(NC[C@@H]4CCCO4)c3c2-c2ccccc2)cc1,100 nM

row,SMILES,IC50
1,CN(C)S(=O)(=O)c1ccc(-c2[nH]c3ncnc(NC[C@@H]4CCCO4)c3c2-c2ccccc2)cc1,90 nM
2,CNS(=O)(=O)c1ccc(-c2oc3ncnc(NC[C@@H]4CCCO4)c3c2-c2ccccc2)cc1,300 nM
3,CNS(=O)(=O)c1ccc(-c2[nH]c3ncnc(NC[C@@H]4CCCO4)c3c2-c2ccccc2)cc1,40 nM
4,CN(C)CCOc1ccc(-c2[nH]c3ncnc(NC[C@@H]4CCCO4)c3c2-c2ccccc2)cc1,20 nM
5,c1ccc(-c2c(-c3ccc(OCCN4CCOCC4)cc3)oc3ncnc(NC[C@@H]4CCCO4)c23)cc1,160 nM
6,c1ccc(-c2c(-c3ccc(OCCN4CCOCC4)cc3)[nH]c3ncnc(NC[C@@H]4CCCO4)c23)cc1,80 nM
7,c1ccc(-c2c(-c3ccc(OCCN4CCCC4)cc3)[nH]c3ncnc(NC[C@@H]4CCCO4)c23)cc1,60 nM
8,O=C1CCCN1CCOc1ccc(-c2oc3ncnc(NC[C@@H]4CCCO4)c3c2-c2ccccc2)cc1,230 nM
9,O=C1CCCN1CCOc1ccc(-c2[nH]c3ncnc(NC[C@@H]4CCCO4)c3c2-c2ccccc2)cc1,20 nM
10,CN(C)C(=O)c1ccc(-c2oc3ncnc(NC[C@@H]4CCCO4)c3c2-c2ccccc2)cc1,180 nM
11,CN(C)C(=O)c1ccc(-c2[nH]c3ncnc(NC[C@@H]4CCCO4)c3c2-c2ccccc2)cc1,20 nM
12,CNC(=O)c1ccc(-c2[nH]c3ncnc(NC[C@@H]4CCCO4)c3c2-c2ccccc2)cc1,40 nM
13,O=C(c1ccc(-c2oc3ncnc(NC[C@@H]4CCCO4)c3c2-c2ccccc2)cc1)N1CCOCC1,190 nM
14,O=C(c1ccc(-c2[nH]c3ncnc(NC[C@@H]4CCCO4)c3c2-c2ccccc2)cc1)N1CCOCC1,20 nM
15,CN(C)CCOc1ccc(-c2[nH]c3ncnc(NC[C@@H]4CCCO4)c3c2C2=CCCCC2)cc1,500 nM
16,CN(C)CCOc1ccc(-c2[nH]c3ncnc(NC[C@@H]4CCCO4)c3c2C2=CCCC2)cc1,240 nM
17,CO[C@@H]1CC[C@H]1CNc1ncnc2[nH]c(-c3ccc(OCCN(C)C)cc3)c(-c3ccccc3)c12,420 nM
18,CNC(=O)c1ccc(-c2oc3ncnc(NC[C@@H]4CCCO4)c3c2-c2ccccc2)cc1,2050 nM
19,"CN(C)CCOc1ccc(-c2oc3ncnc(NC[C@@H]4CCCO4)c3c2-c2ccccc2)cc1 [(S)-6-(4-(2-(dimethylamino)ethoxy)phenyl)-5-phenyl-N-((tetrahydrofuran-2-yl)methyl)furo[2,3-d]pyrimidin-4-amine]",30 nM
20,"c1ccc(-c2oc3nccc(NC[C@@H]4CCCO4)c3c2-c2ccccc2)cc1 [N-[(2S)-oxolan-2-ylmethyl]-2,3-diphenylfuro[2,3-b]pyridin-4-amine]",5600 nM
